Consider 50 compounds from ChEMBL document CHEMBL3637782, “GSK Tres Cantos Follow-up TB Screening Data” (2016).

SMILES strings stand for the structures.

The experiment deals with Mycobacterium tuberculosis variant bovis. In words: GSK_TB: Effect of compound calculated as % inhibition at single shot or pIC50 ( pIC50 ATP assay M.bovis). The experiment is classed as functional, organism-based. The following applies: BCG / Pasteur.
A word on the IC50: it is the concentration that inhibits the measured activity by half. As to `O=C(NCc1ccco1)N1CCN(Cc2ccc3c(c2)CCO3)CC1`, the IC50 was 2.51 µM.

Regarding `COc1ccc2nccc(NC(=O)C3CCN(CCc4ccc(Cl)cc4)CC3)c2n1`, the IC50 is 5.01 µM.

On to `O=C(NCc1ccoc1)N1CCN(Cc2ccc3c(c2)OCO3)CC1`, for which the IC50 was 1.26 µM.

As to `CCCC/C=C/c1cc2ccncc2cc1OC1CCNCC1`, the IC50 was 2.51 µM.

Turning to `O=C(NCc1ccco1)N1CCN(Cc2ccc(Cl)s2)CC1`, the IC50 is 1.26 µM.

`Nc1ccccc1Nc1ccc(Cl)cc1`: the 50% inhibitory concentration (IC50) is 0.1 µM.

As for `NCC(c1cccs1)S(=O)(=O)c1ccccc1` (stereo not given), the IC50 is 5.01 µM.

Take `NS(=O)(=O)c1ccc(Nc2cnc3ccccc3n2)cc1`: the IC50 was 6.31 µM.

As for `O=C(NCc1ccco1)N1CCN(Cc2cccs2)CC1`, the half-maximal inhibitory concentration (IC50) was 7.94 µM.

Turning to `O=S(=O)(NCc1ccccc1)c1ccc(-c2cc3ccncc3cc2OC2CCNCC2)s1`, the IC50 was 2 µM.

`CNc1snc(C)c1C(=O)NCCOc1ccc(OC)cc1`: the IC50 is 3.16 µM.

Take `COc1ccc(-c2nnc3sc(Cc4csc(C)n4)nn23)cc1`: the IC50 was 5.01 µM.

For `CNc1nc(SC)nnc1-c1cccc(Cl)c1Cl`, the IC50 was 12.6 µM.

Consider `Nc1ccc(C(O)CNCCc2ccccc2)cc1O` (stereo not given), for which the IC50 was 2 µM.

Regarding `O=C(Nc1nc2c(s1)CCCc1cccnc1-2)c1ccccc1C(F)(F)F`, the IC50 is 2.51 µM.

On to `NC(=O)c1ccc(CN(C2CC2)S(=O)(=O)c2ccccc2F)cc1`, for which the half-inhibitory concentration (IC50) is 12.6 µM.

Consider `NC(=O)c1cc2ccc(CC(=O)c3cccs3)cc2s1`, for which the 50% inhibitory concentration (IC50) was 15.8 µM.

For `CN(Cc1ccc(Cl)cc1)C(=O)CCc1nc2ccccc2oc1=O`, the concentration for half-maximal inhibition (IC50) is 3.98 µM.

With `Clc1nnc(N2CCCC2)c2ccccc12`, the IC50 is 3.16 µM.

With `Cc1nc(Nc2cnn(Cc3ccccc3F)c2)c2nn(C)c(C)c2n1`, the IC50 was 2.51 µM.

Consider `O=[N+]([O-])c1cnc(-c2nc3ccccc3[nH]2)s1`, for which the half-maximal inhibitory concentration (IC50) is 3.98 µM.

Consider `CCOCn1ccc(NS(=O)(=O)c2ccc(N)cc2)nc1=O`, for which the IC50 was 3.16 µM.

Turning to `FC(F)(F)Oc1ccc(-c2cc3ccncc3cc2OC2CCNCC2)cc1`, the concentration for half-maximal inhibition (IC50) is 3.16 µM.

With `CCCCNCC1COc2ccc(OC)cc2C1=O` (stereo not given), the half-inhibitory concentration (IC50) is 6.31 µM.

Consider `COc1ccc(Nc2nc(N[C@@H]3CCNC3)nc3cc[nH]c(=O)c23)cc1NC(=O)c1ccccc1`, for which the 50% inhibitory concentration (IC50) is 5.01 µM.

On to `N#Cc1ncn(-c2ccc3nnc(C(F)(F)F)n3n2)n1`, for which the IC50 was 7.94 µM.

For the compound `Cn1cc(CCNC(=O)Nc2ccc(N3CCCCC3)nc2)cn1`, the IC50 was 20 µM.

`c1ccc(-c2ncc(-c3ccc(OCCCn4ccnc4)cc3)s2)cc1`: the IC50 was 7.94 µM.

Take `CC(C)N(C(=O)CNc1ccccc1Nc1ccccc1)c1ccccc1`: the concentration for half-maximal inhibition (IC50) is 6.31 µM.

`COc1ccc(Nc2ncccc2N)cc1`: the concentration for half-maximal inhibition (IC50) was 0.794 µM.

In the case of `Fc1ccc(Cc2nnc(-c3ccnc(Nc4ccc(OCCN5CCOCC5)cc4)n3)[nH]2)cc1`, the IC50 was 7.94 µM.

As to `CC1CC1c1ccc(CN2CCc3nc(Nc4ccccc4)sc3CC2)o1` (stereo not given), the IC50 was 6.31 µM.

Consider `FC(F)(F)c1nnc2ccc(Sc3nnc(-c4ccco4)o3)nn12`, for which the IC50 is 3.16 µM.

Take `Cc1ccc2oc(SCC(=O)Nc3nccs3)nc2n1`: the 50% inhibitory concentration (IC50) was 6.31 µM.

With `COC(=O)c1ccc(Oc2ccc(-c3csc(C)n3)cc2F)nn1`, the half-inhibitory concentration (IC50) is 20 µM.

Turning to `CC(C)c1noc(N2CCC([C@H](C)Oc3cnc(-c4ccc(S(C)(=O)=O)c(F)c4)cn3)CC2)n1`, the concentration for half-maximal inhibition (IC50) was 6.31 µM.

With `O=C(NCCO)c1c(O)c2ncc(Cc3ccc(F)cc3C(F)(F)F)cc2[nH]c1=O`, the half-inhibitory concentration (IC50) was 5.01 µM.

`COc1ccc(CCNC(=O)C2(n3cnnn3)CCCCC2)cc1`: the IC50 was 3.98 µM.

With `O=C(O)CCc1nc2ccccc2oc1=O`, the IC50 is 7.94 µM.

Consider `O=C(Nc1nc(-c2ccccn2)cs1)N1CCC(Cc2ccc(F)cc2)CC1`, for which the IC50 is 3.98 µM.

For `CCCCc1ccc(C(=O)Nc2nnc(S(=O)(=O)CCCC)s2)nc1`, the IC50 was 7.94 µM.

As for `CC(C)Oc1ccc(-c2nnc(-c3ccc4c(c3)CCNCC4)s2)cc1Cl`, the IC50 was 2.51 µM.

As for `N#Cc1cccc(-c2ccc(NC[C@H]3CC[C@]4(CC3)CN(c3cccnn3)C(=O)O4)nc2)c1`, the IC50 was 25.1 µM.

On to `N#Cc1cc(C(F)(F)F)c2nc(C(=O)NCc3cccs3)c(Cl)n2c1`, for which the half-inhibitory concentration (IC50) is 6.31 µM.

For `CCOc1cc2ccccc2cc1C(=O)NC`, the half-maximal inhibitory concentration (IC50) was 6.31 µM.

Turning to `Cc1ccc2c(c1)c(=O)cc(C(F)(F)F)n2CCNC(=O)c1ccccn1`, the concentration for half-maximal inhibition (IC50) was 6.31 µM.

In the case of `Fc1cccc(Oc2cc(C3CCCNC3)nc(-c3ccncc3)n2)c1` (stereo not given), the 50% inhibitory concentration (IC50) is 12.6 µM.

As for `Cc1c(C(=O)NCCOc2ccccc2)[nH]c2c1C(=O)CCC2`, the half-maximal inhibitory concentration (IC50) was 7.94 µM.

On to `COc1ccc(CN2CCN(C(=O)/C=C/c3csc(C)n3)CC2)cc1`, for which the IC50 is 5.01 µM.

As to `Nc1ccc(S(=O)(=O)Nc2ccnn2-c2ccccc2)cc1` [SULFAPHENAZOLE], the half-inhibitory concentration (IC50) is 10 µM.
